According to the NIST ThermoML archive (doi:10.1021/acs.jced.9b00173):
± gives the expanded uncertainty stated by the source.

Test: xn = mol fraction of the nth substance listed
Settings: 303.15 K; 101.3 kPa; Liquid; Concentric cylinders viscometry; x1 = 0.5

Compound	viscosity [mPa·s]
c1nc[nH]n1 [1H-1,2,4-triazole] + CCCC[P+](CCCC)(CCCC)CCCC.[Cl-]	67.23 ± 2
c1nnn[nH]1 [1H-tetrazole] + CCCC[N+](CCCC)(CCCC)CCCC.[Br-]	279.15 ± 15
c1nnn[nH]1 [1H-tetrazole] + CCCC[N+](CCCC)(CCCC)CCCC.[Cl-]	87.88 ± 2.8
c1nnn[nH]1 [1H-tetrazole] + CCCC[P+](CCCC)(CCCC)CCCC.[Br-]	68.26 ± 2.1
c1nnn[nH]1 [1H-tetrazole] + CCCC[P+](CCCC)(CCCC)CCCC.[Cl-]	40.22 ± 1.5

Same assay, conditions: 303.15 K; 101.3 kPa; Liquid; Concentric cylinders viscometry; x2 = 0.5

viscosity [mPa·s]	Compound
52.34 ± 1.6	CCCC[P+](CCCC)(CCCC)CCCC.[Cl-] [tetrabutylphosphonium chloride] + c1c[nH]cn1
